Assay results: PMC8592027, “Structure-Guided Design of D-Galactal Derivatives with High Affinity and Selectivity for the Galectin-8 N-Terminal Domain” (ACS Medicinal Chemistry Letters, 2021)
Entries after “also recorded” stand apart in the source; their conditions may differ. Like-named read-outs stand apart in the source and are kept apart here.

Tests used:
galectin-1 = molecular target: T1, galectin-1 (Homo sapiens, UniProt P09382); test: Competitive fluorescence polarization assay, galectin-1; assay type: binding; settings: mean ± SEM of n = 4–8
T1 construct: made in house
Method: (§1) 1. Competitive fluorescence polarization experiments:
(§2) Human galectins -1, -3, -4N, -4C, -7, -8N, -9N, and -9C were expressed and purified as previously described 30,41. Fluorescence polarisation experiments were performed using the PHERAstar FS plat e reader (software version 2.10 R3), and the fluorescence anisotropy of fluorescein tagged probes was measured by excitation at 485 nm and emission at 520 nm. The specific conditions for galectins -1, -3, -4N, -4C, -7, -8N, -9N, and -9C were kept as report ed30,41,42. The synthesised compounds were dissolved in pure DMSO at 20 mM concentration and diluted in PBS to 3-6 different concentrations, and each concentration was tested in duplicate. The highest inhibitor concentrations tested were 1.5 mM. The

galectin-2 [1] = molecular target: T2, galectin-2 (Homo sapiens, UniProt P05162); test: Competitive fluorescence polarization assay, galectin-2; assay type: binding; settings: mean ± SEM of n = 4–8
T2 sequence (P05162 1-132): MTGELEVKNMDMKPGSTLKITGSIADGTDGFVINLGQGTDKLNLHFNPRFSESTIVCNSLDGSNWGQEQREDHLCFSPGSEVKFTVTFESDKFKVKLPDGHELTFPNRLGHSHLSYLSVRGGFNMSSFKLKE

galectin-3 = molecular target: T3, galectin-3 (Homo sapiens, UniProt P17931); test: Competitive fluorescence polarization assay, galectin-3; assay type: binding; settings: mean ± SEM of n = 4–8
T3 construct: made in house
Method: as §1, §2

[2] = molecular target: T4, galectin-4N (N-terminal domain) (Homo sapiens, UniProt P56470); test: Competitive fluorescence polarization assay, galectin-4N; assay type: binding; settings: mean ± SEM of n = 4–8
T4 construct: galectins (N = N-terminal domain, C = C-terminal domain); made in house
T4 sequence (P56470 19-150 limits assumed): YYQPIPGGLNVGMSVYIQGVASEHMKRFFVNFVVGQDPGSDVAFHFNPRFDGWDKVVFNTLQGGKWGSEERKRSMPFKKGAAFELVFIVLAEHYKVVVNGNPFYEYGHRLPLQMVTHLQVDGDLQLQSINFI
Method: as §1, §2

[3] = molecular target: T5, galectin-4C (C-terminal domain) (Homo sapiens, UniProt P56470); test: Competitive fluorescence polarization assay, galectin-4C; assay type: binding; settings: mean ± SEM of n = 4–8
T5 construct: galectins (N = N-terminal domain, C = C-terminal domain); made in house
T5 sequence (P56470 194-323 limits assumed): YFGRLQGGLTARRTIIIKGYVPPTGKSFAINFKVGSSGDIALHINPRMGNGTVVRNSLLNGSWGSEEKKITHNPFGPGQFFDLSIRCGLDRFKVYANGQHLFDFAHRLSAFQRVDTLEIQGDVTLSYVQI
Method: as §1, §2

galectin-7 = molecular target: T6, galectin-7 (Homo sapiens, UniProt P47929); test: Competitive fluorescence polarization assay, galectin-7; assay type: binding; settings: mean ± SEM of n = 4–8
T6 construct: made in house
Method: as §1, §2

[4] = molecular target: T7, galectin-8N (galectin-8 N-terminal domain) (Homo sapiens, UniProt O00214); test: Competitive fluorescence polarization assay, galectin-8N; assay type: binding; settings: for Kd: mean ± SEM of n = 4–8
T7 construct: selective ligand for the galectin-8 N-terminal domain (galectin-8N); made in house
T7 sequence (O00214 19-152 limits assumed): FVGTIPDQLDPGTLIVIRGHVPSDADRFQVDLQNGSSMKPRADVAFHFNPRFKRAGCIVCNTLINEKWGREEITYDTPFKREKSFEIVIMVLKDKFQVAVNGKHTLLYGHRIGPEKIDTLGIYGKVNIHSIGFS
Method: All synthesized D-galactal derivatives had higher binding affinities for galectin-8N than D-galactal 3.
as §1, §2

[5] = molecular target: T8, galectin-9N (N-terminal domain) (Homo sapiens, UniProt O00182); test: Competitive fluorescence polarization assay, galectin-9N; assay type: binding; settings: mean ± SEM of n = 4–8
T8 construct: galectins (N = N-terminal domain, C = C-terminal domain); made in house
Method: as §1, §2

[6] = molecular target: T9, galectin-9C (C-terminal domain) (Homo sapiens, UniProt O00182); test: Competitive fluorescence polarization assay, galectin-9C; assay type: binding; settings: mean ± SEM of n = 4–8
T9 construct: galectins (N = N-terminal domain, C = C-terminal domain); made in house
Method: as §1, §2

K562 cancer cell line = test: MTS metabolic activity (cytotoxicity) assay, K562; assay type: cell-based; settings: concentrations 1 to 100 μM, 24 hours
Method: (§3) We have investigated the cytotoxicity of the compounds 1, 6a, and 6c via a (3-(4,5-dimethylthiazol-2-yl)-5-(3-carboxymethoxyphenyl)-2-(4-sulfophenyl)-2H-tetrazolium) (MTS) assay in K562 and MDA-MB-231 cancer cell lines to establish the direct antitumor activity of compounds, as well as human peripheral blood mononuclear cells (PBMCs), to evaluate their safety.
(§4) Metabolic activity assay:
(§5) The metabolic activities of the cell lines were determined using the CellTiter 96 Aqueous One Solution cell proliferation assay (MTS Reagents, Promega, Madison, WI, USA), according to the manufacturer instructions. Briefly, the cells were treated with the selected compounds in 0.1% dimethyl sulfoxide (DMSO; vehicle), 0.1% DMSO (control vehicle), or medium (control) and seeded at a cell density of 5,500 cells/well (MDA-MB-231 cells) or 4 x 10^4 cells/well (K562 cells), 7000 cells/well (HepG2 cells) or 1 x 10^5 cells/well (human PBMCs) in duplicates (MDA-MB-231, K562, and […]) or triplicates for HepG2 cells (100 µL), in sterile 96-well plates. For the MDA-MB-231 and HepG2, the cells were left to adhere overnight before adding the compounds. The plates were then incubated for 24 hours (48 hours for HepG2), after which 15 µL of MTS reagent was added to each well. After 30-90 minute of incubation, the absorbance was measured at 492 nm using a microplate reader (Synergy HTX Multi-Mode; BioTek Instruments, Inc., VT, USA). […]
(§6) Bead Array Human inflammatory cytokine Kit (content: IL-1, IL-6, IL-8, IL-10, IL-12p). The flow cytometric analyses were performed on an Attune NxT flow cytometer (Thermo Fisher Scientific, […]
(§7) Data are represented as means ± standard deviation (SD) from three representative independent experiments.
(§8) All experiments were performed at least twice, with average values expressed as means ± SD. All data were analyzed with the statistical software GraphPad Prism 8.0 (GraphPad Software, Inc., CA, USA). by one-way ANOVA followed with Dunnett’s multiple compar ison test. Differences were considered non-significant for p > 0.05, and significant (*) for p < 0.05. […]

[7] = test system: MDA-MB-231 cancer cell line; test: MTS metabolic activity (cytotoxicity) assay, MDA-MB-231; assay type: cell-based, human; settings: concentrations 1 to 100 μM, 24 hours
Method: as §3, §4, §5, §6, §7, §8

[8] = test system: human peripheral blood mononuclear cells (PBMCs); test: MTS metabolic activity (cytotoxicity) assay, PBMCs; assay type: cell-based; settings: concentrations up to 100 μM, 24 hours
Method: as §3, §4, §5, §6, §7, §8

[9] = test system: IL-6 secretion from MDA-MB-231 cells; test: Multiplexed cytokine assay, IL-6 secretion; assay type: cell-based, human; settings: 24 hours, vs untreated cells
Method: (§9) Figure 5 Effect of compounds 1 and 6a on the secretion of IL-6 and IL-8 expressed in pg/mL. The effects were measured after incubating the cells with the compounds at 10 and 100 μM. Compounds 1 and 6a reduce the secretion of IL-6 and IL-8 in a dose-dependent manner at 100 and 10 μM. Results shown are means ± SEM of three independent experiments. ns, not significant (p > 0.05); *p < 0.05 versus untreated controls.
(§10) Metabolic activity assay: […]
(§11) Briefly, the cells were treated with the selected compounds in 0.1% dimethyl sulfoxide (DMSO; vehicle), 0.1% DMSO (control vehicle), or medium (control) and seeded at a cell density of 5,500 cells/well (MDA-MB-231 cells) or 4 x 10^4 cells/well (K562 cells), 7000 cells/well (HepG2 cells) or 1 x 10^5 cells/well (human PBMCs) in duplicates (MDA-MB-231, K562, and […]) or triplicates for HepG2 cells (100 µL), in sterile 96-well plates. For the MDA-MB-231 and HepG2, the cells were left to adhere overnight before adding the compounds. The plates were then incubated for 24 hours (48 hours for HepG2), after which 15 µL of MTS reagent was added to each well. […]
(§12) HTX Multi-Mode; BioTek Instruments, Inc., VT, USA).
(§13) Multiplexed cytokine assay:
(§14) MDA-MB-231 cells were seeded in 96-well flat-bottom plates at a density of 2 x 10^4 cells/well in 100 µL of medium and allowed to adhere for 24 hours at 37 °C and 5% CO2. The medium was then replaced by a fresh medium containing the desired concentrations of compounds 1 and 6a, after which the cells were cells incubated again for 24 hours at 37 °C and 5% CO2. Cell-free supernatants were collected and stored at – 80 °C before the analysis. The cytokines secretion was assessed by BD Cytometric Bead Array Human inflammatory cytokine Kit (content: IL-1, IL-6, IL-8, IL-10, IL-12p). The flow cytometric analyses were performed on an Attune NxT flow cytometer (Thermo Fisher Scientific, Waltham, MA, USA). Standard curves were generated using recombinant cytokines provided in the kit, and the data were analyzed with FlowJo software (Tree Star, Inc., Ashland, OR). The results are expressed in pg/mL. Data are represented as means ± standard deviation (SD) from three representative independent experiments.
(§15) All experiments were performed at least twice, with average values expressed as means ± SD. All data were analyzed with the statistical software GraphPad Prism 8.0 (GraphPad Software, Inc., CA, USA). by one-way ANOVA followed with Dunnett’s multiple compar ison test. Differences were considered non-significant for p > 0.05, and significant (*) for p < 0.05.

[10] = test system: IL-8 secretion from MDA-MB-231 cells; test: Multiplexed cytokine assay, IL-8 secretion; assay type: cell-based, human; settings: 24 hours, vs untreated cells
Method: as §9, §10, §11, §12, §13, §14, §15

galectin-2 [11] = molecular target: T2, galectin-2; design: method as in PMID 30117507, PMID 15889175, doi:10.1139/cjc-2015-0598; settings: cited from earlier work
[12] = molecular target: T8, galectin-9N (N-terminal domain); settings: cited from earlier work
[13] = molecular target: T9, galectin-9C (C-terminal domain); settings: cited from earlier work
[14] = molecular target: T7, galectin-8N (galectin-8 N-terminal domain); settings: cited from earlier work
[15] = molecular target: T10, galectin-8C (C-terminal domain) (Homo sapiens, UniProt O00214); test: Competitive fluorescence polarization assay, galectin-8C; assay type: binding; settings: mean ± SEM of n = 4–8
T10 construct: galectins (N = N-terminal domain, C = C-terminal domain)
T10 sequence (O00214 187-317 limits assumed): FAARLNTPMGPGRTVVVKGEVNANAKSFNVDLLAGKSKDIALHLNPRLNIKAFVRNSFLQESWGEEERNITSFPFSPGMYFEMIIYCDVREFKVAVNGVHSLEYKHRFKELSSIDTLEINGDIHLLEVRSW

T8 sequence (O00182 17-148 limits assumed): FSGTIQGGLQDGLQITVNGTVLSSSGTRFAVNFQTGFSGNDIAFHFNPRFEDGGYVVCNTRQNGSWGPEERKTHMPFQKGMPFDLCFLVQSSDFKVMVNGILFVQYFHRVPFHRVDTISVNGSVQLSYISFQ
T9 sequence (O00182 227-355 limits assumed): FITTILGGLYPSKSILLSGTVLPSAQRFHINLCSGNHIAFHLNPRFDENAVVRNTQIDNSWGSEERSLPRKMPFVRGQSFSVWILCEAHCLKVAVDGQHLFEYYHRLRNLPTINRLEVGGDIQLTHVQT
T6 sequence (P47929 whole entry): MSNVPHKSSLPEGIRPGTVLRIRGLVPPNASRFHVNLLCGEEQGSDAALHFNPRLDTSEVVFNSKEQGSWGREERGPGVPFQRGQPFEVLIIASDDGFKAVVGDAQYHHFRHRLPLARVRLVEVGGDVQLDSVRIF
T3 sequence (P17931 whole entry): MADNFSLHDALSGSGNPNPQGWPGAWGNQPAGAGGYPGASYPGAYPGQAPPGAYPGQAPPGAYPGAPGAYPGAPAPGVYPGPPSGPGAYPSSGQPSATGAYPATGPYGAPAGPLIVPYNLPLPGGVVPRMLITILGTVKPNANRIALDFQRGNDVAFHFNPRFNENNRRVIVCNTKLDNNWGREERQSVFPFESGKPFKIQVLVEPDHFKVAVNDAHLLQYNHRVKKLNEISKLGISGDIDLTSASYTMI
T1 sequence (P09382 whole entry): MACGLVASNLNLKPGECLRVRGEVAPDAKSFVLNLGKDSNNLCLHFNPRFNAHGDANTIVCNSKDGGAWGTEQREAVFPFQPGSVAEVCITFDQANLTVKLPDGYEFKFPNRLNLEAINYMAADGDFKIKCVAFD

Compound | Kd (galectin-1) [µM] | Kd (galectin-2 [1]) [µM] | Kd (galectin-3) [µM] | Kd [2] [µM] | Kd [3] [µM] | Kd (galectin-7) [µM] | Kd [4] [µM] | Kd [5] [µM] | Kd [6] [µM] | cell viability (MTS), K562 (K562 cancer cell line) | cell viability (MTS), MDA-MB-231 [7] | direct cytotoxicity (MTS), PBMCs [8] | further results
O=C(O)c1ccc2nc(CO[C@@H]3C=CO[C@H](CO)[C@@H]3O)[nH]c2c1 [6c] | > 1500 | 990 ± 170 | 550 ± 32 | 1400 ± 230 | 1900 ± 400 | > 1500 | 46 ± 4 | > 1500 | 2500 | None of the compounds decreased the viability | None of the compounds decreased the viability | lack of direct cytotoxicity | 
Cn1c(CO[C@@H]2[C@@H](O)[C@@H](Sc3ccc(Cl)c(Cl)c3)O[C@H](CO)[C@@H]2O)nc2ccc(C(=O)O)cc21 [compound 1, reference compound] |  |  |  |  |  |  |  |  |  | None of the compounds decreased the viability | None of the compounds decreased the viability; also recorded: no effect on the viability | lack of direct cytotoxicity | affinity for galectin-8N relative to that of compound 6a [4]: about 25 fold; reduction in IL-6 secretion ([9]; 10 μM, effect not significant): about 15%; reduction of IL-6 secretion ([9]; 100 μM): about 65%; reduction in IL-8 secretion ([10]; 10 μM, effect not significant): ~20%; reduction of IL-8 secretion ([10]; 100 μM): about 55%
CO[C@@H]1O[C@H](CO)[C@H](O)[C@H](O)[C@H]1O [methyl β-D-galactoside] |  |  |  |  |  |  |  |  |  |  |  |  | Kd (galectin-2 [11]): 13000 µM; Kd [12]: 3300 µM; Kd [13]: 8600 ± 7310 µM
OC[C@H]1Oc2cc(Cc3ccc(F)cc3)cc3c2[C@@H](OC3)[C@H]1O [compound 2] |  |  |  |  |  |  |  |  |  |  |  |  | selectivity for galectin-8N over galectin-1 [14]: about 2 fold; selectivity for galectin-8N over galectin-3 [14]: 23 fold
O=C(O)c1ccc2ccc(CO[C@@H]3C=CO[C@H](CO)[C@@H]3O)nc2c1 [compound 9] | 3600 | 1100 ± 200 | 590 ± 78 | > 1500 | 2800 ± 770 | > 1500 | 48 ± 6 | 1800 ± 160 | > 1500 |  |  |  | Kd [15]: 4700 ± 22 µM
methyl β-D-galactomalonyl phenyl ester |  |  |  |  |  |  |  |  |  |  |  |  | Kd [14]: 5.7 µM
